Active and inactive are the calls of the source. The rule behind the calls is not given here. Starred links: 1 amine or outer side, 2 acyl side, 3 side chain; linkers in the order of their positions; H or OH if unused. Positions of bridges follow the written chain, without caps; N, C: chain ends. Non-standard residues stand in square brackets, D forms with d. Residues, ends and D or L forms follow the SMILES beside them. Chains are numbered I, II in the order given. Actinocin(9to1) = Cc1c2oc3c(C)ccc(C(=O)[*:1])c3nc-2c(C(=O)[*:2])c(N)c1=O; NMeV = CN[C@H](C(=O)O)C(C)C; Sar = CNCC(=O)O
How the values were obtained:
Thioredoxin reductase = Thioredoxin reductase (Escherichia coli (strain K12), UniProt P0A9P4); assay: Negative allosteric modulator activity at Escherichia coli TrxR using DTNB as substrate preincubated for 20 mins followed by substrate addition in presence of NADPH and measured after 60 mins
[1] = target: T1, Glutaminase kidney isoform, mitochondrial (Homo sapiens, UniProt O94925); assay: Negative allosteric modulator activity at human wildtype KGA incubated for 5 hrs in presence of GDH and NADP by EZMTT assay
T1 sequence (O94925 whole entry): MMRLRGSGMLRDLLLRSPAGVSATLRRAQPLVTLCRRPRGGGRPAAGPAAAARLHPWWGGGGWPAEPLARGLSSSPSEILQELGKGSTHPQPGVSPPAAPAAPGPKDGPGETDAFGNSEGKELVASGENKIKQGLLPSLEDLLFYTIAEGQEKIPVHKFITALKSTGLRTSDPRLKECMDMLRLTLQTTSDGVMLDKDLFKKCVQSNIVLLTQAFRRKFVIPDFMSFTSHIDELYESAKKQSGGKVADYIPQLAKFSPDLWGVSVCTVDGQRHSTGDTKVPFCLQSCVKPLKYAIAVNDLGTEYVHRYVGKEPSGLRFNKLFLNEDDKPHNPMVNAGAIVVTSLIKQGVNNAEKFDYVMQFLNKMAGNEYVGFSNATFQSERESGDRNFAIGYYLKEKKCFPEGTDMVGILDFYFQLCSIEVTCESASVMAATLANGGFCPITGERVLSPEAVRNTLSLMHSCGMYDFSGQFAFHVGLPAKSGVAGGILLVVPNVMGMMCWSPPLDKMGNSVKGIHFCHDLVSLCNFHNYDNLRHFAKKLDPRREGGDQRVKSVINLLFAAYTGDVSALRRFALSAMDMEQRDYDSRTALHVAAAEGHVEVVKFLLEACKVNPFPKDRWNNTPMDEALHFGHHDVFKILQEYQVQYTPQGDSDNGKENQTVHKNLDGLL

[2] = Negative allosteric modulator activity at Escherichia coli GDH incubated for 1.5 hrs in presence of glutamate and NADP by EZMTT assay
A549 = assay: Antiproliferative activity against human A549 cells assessed as cell growth inhibition incubated for 5 days by EZMTT assay; format: functional, cell-based; settings: A549, 120 h
H22 [3] = assay: Antiproliferative activity against mouse H22 cells assessed as cell growth inhibition incubated for 5 days by EZMTT assay; format: functional, cell-based; settings: H22, 120 h
[4] = Toxicity in ICR mouse xenografted with mouse H22 cells assessed as body weight loss at 0.25 mg/kg,SC for 10 consecutive days; format: organism-based; settings: in vivo
H22 [5] = assay: Antitumor activity against mouse H22 cells xenografted in ICR mouse assessed as tumor growth inhibition at 0.25 mg/kg,SC for 10 consecutive days; format: functional, organism-based
H22 [6] = assay: Antitumor activity against mouse H22 cells xenografted in ICR mouse assessed as increase in survival time at 10 mg/kg,SC administration for 10 consecutive days and measured after 32 days; format: functional, organism-based; settings: time 32.0 day
Homo sapiens [7] = organism: Homo sapiens; assay: Binding affinity to human biotinylated KGA K320A mutant at 1 to 10 uM by biolayer interferometry assay; settings: dose 1-10 µM
[8] = Negative allosteric modulator activity at human KGA K320A mutant using glutamine as substrate preincubated for 1 hr followed by substrate addition in presence of GDH and NADP and measured after 4 hrs by EZMTT reagent based dilution assay
H22 [9] = assay: Antitumor activity against mouse H22 cells xenografted in ICR mouse assessed as reduction in tumor size at 10 mg/kg,SC for 10 consecutive days; format: functional; parameters: scale not given: the % may be the effect or the level left
U-251 = assay: Antiproliferative activity against human U-251 cells assessed as cell growth inhibition incubated for 5 days by EZMTT assay; format: functional, cell-based; settings: U-251, 120 h
ACHN = assay: Antiproliferative activity against human ACHN cells assessed as cell growth inhibition incubated for 5 days by EZMTT assay; format: functional, cell-based; settings: 120 h
[10] = target: T1, Glutaminase kidney isoform, mitochondrial; assay: Negative allosteric modulator activity at human wildtype KGA using glutamine as substrate preincubated for 1 hr followed by substrate addition in presence of GDH and NADP and measured after 4 hrs by EZMTT reagent based dilution assay
[11] = tested on: KATO III stomach cancer cell line; assay: Antiproliferative activity against human KATO III stomach cancer cell line assessed as cell growth inhibition incubated for 5 days by EZMTT assay; format: functional, cell-based; settings: 120 h
H22 [12] = assay: Antitumor activity against mouse H22 cells xenografted in ICR mouse assessed as increase in survival time at SC administration for 10 consecutive days and measured after 32 days; format: functional; settings: time 32.0 day
[13] = Toxicity in ICR mouse xenografted with mouse H22 cells assessed as change in body weight at 10 mg/kg,SC for 10 consecutive days and measured after 32 days; format: organism-based; settings: in vivo, 768 h, time 32 day
CAKI-1 = assay: Antiproliferative activity against human CAKI-1 cells assessed as cell growth inhibition incubated for 5 days by EZMTT assay; format: functional, cell-based; settings: CAKI-1, 120 h
HepG2 = assay: Antiproliferative activity against human HepG2 cells assessed as cell growth inhibition incubated for 5 days by EZMTT assay; format: functional, cell-based; settings: HepG2, 120 h
[14] = Toxicity in ICR mouse xenografted with mouse H22 cells assessed as change in body weight at 30 mg/kg,SC for 10 consecutive days and measured after 32 days; format: organism-based; settings: in vivo, 768 h, time 32 day
HGC-27 = assay: Antiproliferative activity against human HGC-27 cells assessed as cell growth inhibition incubated for 5 days by EZMTT assay; format: functional, cell-based; settings: HGC-27, 120 h
[15] = Toxicity in ICR mouse xenografted with mouse H22 cells assessed as body weight loss at 10 mg/kg,SC for 10 consecutive days; format: organism-based; settings: in vivo
Homo sapiens [16] = organism: Homo sapiens; assay: Binding affinity to human biotinylated KGA K320A mutant at 0.01 to 1 uM by biolayer interferometry assay; settings: dose 0.01-1 µM
[17] = target: T2, Glutaminase kidney isoform, mitochondrial (Homo sapiens) (UniProt O94925); assay: Binding affinity to human biotinylated wildtype KGA at 0.01 to 1 uM by biolayer interferometry assay; settings: filed as negative allosteric modulator, dose 0.01-1 µM
T2 sequence (whole entry): T1 sequence (O94925 whole entry)

[18] = Toxicity in ICR mouse xenografted with mouse H22 cells assessed as change in body weight at 1 to 10 mg/kg,SC for 10 consecutive days and measured after 32 days; format: organism-based; settings: in vivo, 768 h, dose 1-10 mg/kg, time 32 day

Chain of Thioredoxin reductase (P0A9P4 whole entry, canonical isoform): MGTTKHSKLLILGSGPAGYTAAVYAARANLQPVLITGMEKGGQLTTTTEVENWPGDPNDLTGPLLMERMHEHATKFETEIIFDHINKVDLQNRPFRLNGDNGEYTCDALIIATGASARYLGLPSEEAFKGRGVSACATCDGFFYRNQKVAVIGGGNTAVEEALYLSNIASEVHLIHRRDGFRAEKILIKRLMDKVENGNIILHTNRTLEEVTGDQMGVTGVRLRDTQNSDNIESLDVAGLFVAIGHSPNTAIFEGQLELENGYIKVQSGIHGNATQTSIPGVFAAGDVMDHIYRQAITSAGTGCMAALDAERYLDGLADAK

Structure (SMILES): Nc1nnc(CCCCCCc2nnc(N)[se]2)[se]1
- IC50 (Thioredoxin reductase): > 10 µM
- IC50 [1]: > 10 µM
- IC50 [2]: > 10 µM
- IC50 (A549): > 10 µM
- IC50 (H22 [3]): > 10 µM

Structure (SMILES): O=[N+]([O-])c1ccc2c(cnn2CC[Se][Se]CCn2ncc3cc([N+](=O)[O-])ccc32)c1
- IC50 (Thioredoxin reductase): 0.7 µM
- IC50 [1]: 0.4 µM
- IC50 [2]: > 10 µM
- IC50 (A549): 0.4 µM
- IC50 (H22 [3]): 8 µM

Structure (SMILES): Cc1nn(CCCCCCn2nc(C)c(Cl)c2C)c(C)c1Cl
- IC50 (Thioredoxin reductase): > 10 µM
- IC50 [1]: > 10 µM
- IC50 [2]: > 10 µM
- IC50 (A549): > 10 µM
- IC50 (H22 [3]): > 10 µM

Structure (SMILES): Cc1c2oc3c(C)ccc(C(=O)N[C@@H]4C(=O)N[C@H](C(C)C)C(=O)N5CCC[C@H]5C(=O)N(C)CC(=O)N(C)[C@@H](C(C)C)C(=O)O[C@@H]4C)c3nc-2c(C(=O)N[C@@H]2C(=O)N[C@H](C(C)C)C(=O)N3CCC[C@H]3C(=O)N(C)CC(=O)N(C)[C@@H](C(C)C)C(=O)O[C@@H]2C)c(N)c1=O [DACTINOMYCIN] (I: T[dV]P[Sar][NMeV] / II: T[dV]P[Sar][NMeV]; ester I:1-I:C, II:1-II:C; linker I:N-II:N via Actinocin(9to1))
- Activity [4]: Toxic
- Activity (H22 [5]): Active

Structure (SMILES): CCCCCCCC[Se][Se]CCCCCCCC
- IC50 (Thioredoxin reductase): > 10 µM
- IC50 [1]: > 10 µM
- IC50 [2]: > 10 µM
- IC50 (A549): > 10 µM
- IC50 (H22 [3]): > 10 µM

Structure (SMILES): O=C(Cc1cccc(OC(F)(F)F)c1)Nc1ccc(CCCCc2nnc(NC(=O)Cc3ccccn3)s2)nn1
- Activity (H22 [6]): inactive
- Activity (Homo sapiens [7]): inactive
- IC50 [8]: 0.3 µM
- IC50 (Thioredoxin reductase): > 10 µM
- IC50 [2]: > 10 µM
- IC50 (H22 [3]): > 10 µM

Structure (SMILES): c1ccc(CC[Se][Se]CCc2ccccc2)cc1
- IC50 (Thioredoxin reductase): 13 µM
- IC50 [1]: > 10 µM
- IC50 [2]: > 10 µM
- IC50 (A549): > 10 µM
- IC50 (H22 [3]): 5.6 µM

Structure (SMILES): Cc1nn(CCSSCCn2nc(C)c(Cl)c2C)c(C)c1Cl
- IC50 (Thioredoxin reductase): > 10 µM
- IC50 [1]: > 10 µM
- IC50 [2]: > 10 µM
- IC50 (A549): > 10 µM
- IC50 (H22 [3]): > 10 µM

Structure (SMILES): O=C1c2ccccc2C(=O)N1CC[Se][Se]CCN1C(=O)c2ccccc2C1=O
- Activity (H22 [9]): ~70%
- IC50 (U-251): 1.6 µM
- IC50 (ACHN): 2.1 µM
- IC50 [10]: 2.1 µM
- IC50 [11]: 1.65 µM
- IC50 [8]: > 10 µM
- Activity (H22 [12]): Dose-Dependent Effect
- Activity [13]: Toxic
- IC50 (Thioredoxin reductase): 0.7 µM
- IC50 (CAKI-1): 3.3 µM
- IC50 [1]: 0.4 µM
- IC50 [2]: > 10 µM
- IC50 (A549): 1.6 µM
- IC50 (HepG2): 1.9 µM
- Activity [14]: Toxic
- IC50 (H22 [3]): 0.83 µM
- IC50 (HGC-27): 1.2 µM
- Activity [15]: Non-Toxic

Structure (SMILES): Cc1nn(CC[Se][Se]CCn2nc(C)c(Cl)c2C)c(C)c1Cl
- IC50 (Thioredoxin reductase): 0.7 µM
- IC50 [1]: 0.54 µM
- IC50 [2]: > 10 µM
- IC50 (A549): 3 µM
- IC50 (H22 [3]): 4 µM

Structure (SMILES): O=C1c2ccccc2C(=O)N1CCSSCCN1C(=O)c2ccccc2C1=O
- IC50 (Thioredoxin reductase): > 10 µM
- IC50 [1]: > 10 µM
- IC50 [2]: > 10 µM
- IC50 (A549): > 10 µM
- IC50 (H22 [3]): > 10 µM

Structure (SMILES): Cc1cc(C)n(CCSSCCn2nc(C)cc2C)n1
- IC50 (Thioredoxin reductase): > 10 µM
- IC50 [1]: > 10 µM
- IC50 [2]: > 10 µM
- IC50 (A549): > 10 µM
- IC50 (H22 [3]): > 10 µM

Structure (SMILES): Cc1nn(CCC[Se]CCn2nc(C)c(Cl)c2C)c(C)c1Cl
- IC50 (Thioredoxin reductase): > 10 µM
- IC50 [1]: > 10 µM
- IC50 [2]: > 10 µM
- IC50 (A549): > 10 µM
- IC50 (H22 [3]): 8 µM

Structure (SMILES): Cc1nn(CC[Se][Se]CCn2nc(C)c3ccccc32)c2ccccc12
- Activity (H22 [9]): ~70%
- IC50 [10]: 2.2 µM
- Activity (Homo sapiens [16]): inactive
- IC50 [8]: > 10 µM
- Activity [17]: Active
- Activity (H22 [12]): Dose-Dependent Effect
- IC50 (Thioredoxin reductase): 0.5 µM
- IC50 [1]: 0.2 µM
- IC50 [2]: > 10 µM
- IC50 (A549): 0.75 µM
- IC50 (H22 [3]): 3.5 µM
- Activity [18]: Toxic
- Activity [15]: Non-Toxic

Structure (SMILES): Cc1cc(C)n(CC[Se][Se]CCn2nc(C)cc2C)n1
- IC50 (Thioredoxin reductase): 3.7 µM
- IC50 [1]: 3.6 µM
- IC50 [2]: > 10 µM
- IC50 (A549): 1.7 µM
- IC50 (H22 [3]): 2.8 µM

Structure (SMILES): O=c1[nH]n(CC[Se][Se]CCn2[nH]c(=O)c3ccccc3c2=O)c(=O)c2ccccc12
- IC50 (Thioredoxin reductase): 2.1 µM
- IC50 [1]: 1 µM
- IC50 [2]: > 10 µM
- IC50 (A549): > 10 µM
- IC50 (H22 [3]): > 10 µM

Structure (SMILES): Nc1nnc(CCCCCCc2nnc(N)s2)s1
- IC50 (Thioredoxin reductase): > 10 µM
- IC50 [1]: > 10 µM
- IC50 [2]: > 10 µM
- IC50 (A549): > 10 µM
- IC50 (H22 [3]): > 10 µM

Structure (SMILES): Nc1nnc(CC[Se][Se]CCc2nnc(N)s2)s1
- IC50 (Thioredoxin reductase): 3 µM
- IC50 [1]: 4 µM
- IC50 [2]: > 10 µM
- IC50 (A549): 9 µM
- IC50 (H22 [3]): 2.6 µM

Structure (SMILES): Nc1nnc(CC[Se][Se]CCc2nnc(N)[se]2)[se]1
- IC50 (Thioredoxin reductase): 4 µM
- IC50 [1]: 3 µM
- IC50 [2]: > 10 µM
- IC50 (A549): 8 µM
- IC50 (H22 [3]): 2.6 µM

Source: ChEMBL document CHEMBL5360603, “Diselenide Covalent Allosteric Inhibitors of Glutaminase with Strong In Vivo Anticancer Activity” (ACS Med Chem Lett, 2023)
